Experimental data taken from ChEMBL document CHEMBL4229410, “Facile construction of fused benzimidazole-isoquinolinones that induce cell-cycle arrest and apoptosis in colorectal cancer cells” (Bioorg Med Chem, 2018).
Calls of active or inactive are those of the source. No cut-off for these calls is given here.

Assays:
[1] = system: SW-620; assay: Induction of apoptosis in human SW620 cells assessed as live cells at 75 uM after 48 hrs by Annexin-V-FITC/propidium iodide staining based flow cytometry (reference value: 97.5%); format: functional
[2] = target: Mitogen-activated protein kinase 9 (Homo sapiens, UniProt P45984); assay: Inhibition of full length human JNK2 (M1 to Q382 residues) expressed in mammalian expression system assessed as residual activity at 5 uM by KINOMEscan assay relative to control
[3] = target: Inhibitor of nuclear factor kappa-B kinase subunit beta (Homo sapiens) (UniProt O14920); assay: Inhibition of full length human IKKbeta (M1 to S756 residues) expressed in mammalian expression system assessed as residual activity at 5 uM by KINOMEscan assay relative to control
[4] = system: SW-620; assay: Inhibition of colony formation in human SW620 cells assessed as reduction in number of colonies at 25 to 75 uM treated for 48 hrs followed by compound washout and measured after 14 hrs by crystal violet staining based assay; format: functional, cell-based
[5] = system: HT-29; assay: Upregulation of p53 expression in human HT-29 cells after 48 hrs by Western blot analysis; format: functional, cell-based
[6] = target: Mast/stem cell growth factor receptor Kit (Homo sapiens, UniProt P10721); assay: Inhibition of human KIT (I571 to D952 residues) expressed in bacterial expression system assessed as residual activity at 5 uM by KINOMEscan assay relative to control
[7] = target: Phosphatidylinositol 4,5-bisphosphate 3-kinase catalytic subunit alpha isoform (Homo sapiens, UniProt P42336); assay: Binding affinity to human PIK3CA (R108 to N1068 residues) expressed in mammalian expression system by KINOMEscan assay
[8] = system: SW-620; assay: Induction of apoptosis in human SW620 cells assessed as live cells at 25 uM after 48 hrs by Annexin-V-FITC/propidium iodide staining based flow cytometry (reference value: 97.5%); format: functional
[9] = target: Receptor tyrosine-protein kinase erbB-4 (Homo sapiens, UniProt Q15303); assay: Inhibition of human ERBB4 (L690 to K994 residues) expressed in bacterial expression system assessed as residual activity at 5 uM by KINOMEscan assay relative to control
[10] = target: MAP kinase-activated protein kinase 2 (Homo sapiens, UniProt P49137); assay: Binding affinity to human MAPKAPK2 (V48 to D345 residues) expressed in bacterial expression system by KINOMEscan assay
[11] = target: Serine/threonine-protein kinase pim-1 (Homo sapiens, UniProt P11309); assay: Binding affinity to human PIM1 (A15 to K313 residues) expressed in bacterial expression system by KINOMEscan assay
[12] = target: Serine/threonine-protein kinase DCLK1 (Homo sapiens) (UniProt O15075); assay: Inhibition of partial length human DCAMKL1 (L270 to A662 residues) expressed in mammalian expression system assessed as residual activity at 5 uM by KINOMEscan assay relative to control
[13] = system: Serine/threonine-protein kinase B-raf (Homo sapiens), P15056 [V600E]; assay: Inhibition of human BRAF (S429 to E741 residues) V600E mutant expressed in mammalian expression system assessed as residual activity at 5 uM by KINOMEscan assay relative to control
[14] = target: Vascular endothelial growth factor receptor 2 (Homo sapiens, UniProt P35968); assay: Inhibition of human VEGFR2 (R787 to P1253 residues) expressed in mammalian expression system assessed as residual activity at 5 uM by KINOMEscan assay relative to control
[15] = target: MAP kinase-interacting serine/threonine-protein kinase 2 (Homo sapiens, UniProt Q9HBH9); assay: Inhibition of human MKNK2 (G63 to S388 residues) expressed in mammalian expression system assessed as residual activity at 5 uM by KINOMEscan assay relative to control
[16] = target: Serine/threonine-protein kinase STK11 (Homo sapiens) (UniProt Q15831); assay: Inhibition of full length human LKB1 (M1 to Q433 residues) expressed in bacterial expression system assessed as residual activity at 5 uM by KINOMEscan assay relative to control
[17] = target: Aurora kinase A (Homo sapiens, UniProt O14965); assay: Binding affinity to human AURKA (E122 to K401 residues) expressed in mammalian expression system by KINOMEscan assay
[18] = target: Platelet-derived growth factor receptor alpha (Homo sapiens, UniProt P16234); assay: Binding affinity to human PDGFRA (V575 to D1002 residues) expressed in mammalian expression system by KINOMEscan assay
[19] = system: HT-29; assay: Inhibition of colony formation in human HT-29 cells assessed as reduction in colony size at 25 to 75 uM treated for 48 hrs followed by compound washout and measured after 14 hrs by crystal violet staining based assay; format: functional, cell-based
[20] = system: SW-620; assay: Induction of apoptosis in human SW620 cells assessed as necrotic cells at 50 uM after 48 hrs by Annexin-V-FITC/propidium iodide staining based flow cytometry (reference value: 0.9%); format: functional
[21] = system: SW-620; assay: Induction of apoptosis in human SW620 cells assessed as early apoptotic cells at 25 uM after 48 hrs by Annexin-V-FITC/propidium iodide staining based flow cytometry (reference value: 0.4%); format: functional
[22] = target: Insulin-like growth factor 1 receptor (Homo sapiens, UniProt P08069); assay: Binding affinity to human IGF1R (L972 to D1294 residues) expressed in bacterial expression system by KINOMEscan assay
[23] = target: Serine/threonine-protein kinase PAK 4 (Homo sapiens, UniProt O96013); assay: Inhibition of partial length human PAK4 (Q144 to R438 residues) expressed in bacterial expression system assessed as residual activity at 5 uM by KINOMEscan assay relative to control
[24] = target: Phosphatidylinositol 4,5-bisphosphate 3-kinase catalytic subunit gamma isoform (Homo sapiens, UniProt P48736); assay: Binding affinity to human PIK3CG (S144 to A1102 residues) expressed in mammalian expression system by KINOMEscan assay
[25] = system: HT-29; assay: Cell cycle arrest in human HT-29 cells assessed as accumulation at G1-phase at 25 uM after 48 hrs by propidium iodide staining based flow cytometry (reference value: 41.86%); format: functional
[26] = target: Angiopoietin-1 receptor (Homo sapiens, UniProt Q02763); assay: Inhibition of human TIE2 (N804 to T1112 residues) expressed in bacterial expression system assessed as residual activity at 5 uM by KINOMEscan assay relative to control
[27] = target: cAMP-dependent protein kinase catalytic subunit alpha (Homo sapiens, UniProt P17612); assay: Binding affinity to human PKACalpha (G10 to F351 residues) expressed in bacterial expression system by KINOMEscan assay
[28] = system: Epidermal growth factor receptor (Homo sapiens), P00533 [L858R]; assay: Inhibition of partial length human EGFR (R669 to V1011 residues) L858R mutant expressed in bacterial expression system assessed as residual activity at 5 uM by KINOMEscan assay relative to control
[29] = target: Non-receptor tyrosine-protein kinase TYK2 (Homo sapiens, UniProt P29597); assay: Binding affinity to human TYK2 JH1 catalytic domain (V877 to C1187 residues) expressed in mammalian expression system by KINOMEscan assay

In the case of `CC(C)CN(C(=O)c1cccnc1)c1c2ccccc2c(=O)n2c1[nH]c1ccccc12`, the Activity [1] is reported as 76.7%, the Activity [2] is reported as 96% and the Activity [3] is reported as 93%. The inhibition [4] was “Active”, the Activity [5] was “Dose-dependent effect” and the Activity [6] was 93%. The Kd [7] was ≥ 5 µM, the Activity [8] was 92.1% and the Activity [9] was 98%. The Kd [10] was ≥ 5 µM, the Kd [11] was ≥ 5 µM and the Activity [12] was 74%. For the same molecule, the Activity [13] was 100%, the Activity [14] was 98% and the Activity [15] was 92%. The Activity [16] was 63%, the Kd [17] was ≥ 5 µM and the Kd [18] was ≥ 5 µM. The inhibition [19] was “Active”, the Activity [20] was 5.5% and the Activity [21] was 0.7%. The Kd [22] was ≥ 5 µM, the Activity [23] was 82% and the Kd [24] was ≥ 5 µM. The Activity [25] was 42.5%, the Activity [26] was 88% and the Kd [27] was ≥ 5 µM. The Activity [28] was 92% and the Kd [29] was ≥ 5 µM.
